Data from patent publication US9604987B2, “Synthesis of autophagy inducing compound and the uses thereof” (Hong Kong Baptist University, priority 2012, dated 2017).

Key:
N2a cells = test: Western blot of autophagy marker LC3-II in N2a cells; assay type: cell-based, mouse; details: N2a, oxindole alkaloids, 12 hours
Method: Native and denatured PAGE and Western blotting analysis. Samples to be run under denaturing conditions were lysed with RIPA lysis buffer (150 mM NaCl, 50 mM Tris-HCl, 0.35% sodium deoxycholate, 1 mM EDTA, 1% NP40, 1 mM PMSF, 5 μg/ml aprotinin, 5 μg/ml leupeptin). Samples for native gels were lysed with detergent-free lysis buffer (50 mM Tris/HCl pH 7.4, 175 mM NaCl, 5 mM EDTA pH 8.0, 1 mM PMSF, 5 μg/ml aprotinin, 5 μg/ml leupeptin), and sheared 5 times through a 28-gauge needle followed by 2 times of sonication for 5 seconds according to previously described protocol. For denaturing, SDS-PAGE was performed using Tris-Glycine SDS running buffer and SDS sample buffer, and for native conditions, native-PAGE was run with detergent-free Tris-Glycine running buffer (BN2007, Invitrogen) and 4× native sample buffer (BN2003, Invitrogen) on a pre-casted native PAGE gel (BN1002BOX, Invitrogen). The proteins on the gels were then transferred to PVDF membrane (RPN303F, GE Healthcare) and processed for immunoblotting. Membranes were blocked with 5% non-fat milk and probed with the appropriate primary and secondary antibodies. The desired bands were visualized using the ECL kit (32106, Pierce). The band density was quantified using the ImageJ program and normalized to that of the control group.
In order to confirm the neuronal autophagy inducing activity of Cory B (its chemical structure is shown in FIG. 1A), mouse neuroblastoma N2a, rat phenochromocytoma PC12 and human neurobastoma SH-SY5Y are treated with different concentrations of Cory B for 24 hours and cell lysates are subjected to western blotting analysis of LC3-II expression which is an autophagy-specific marker.
To confirm that enhancement of autophagy markers by Cory B is due to induction of autophagy rather than blockage of autophagosome maturation, N2a cells are treated with 25 μM Cory B or 30 μM lysosome inhibitor CQ together with Cory B for 12 hours. Cell lysates are subject to western blot analysis. Data are presented as the mean±SEM from 3 independent experiments (***p<0.001, one-way ANOVA for multiple comparison and Tukey's test as post hoc test). Both LC3-II levels and the number of GFP-LC3 puncta in the Cory B and CQ co-treatment group are much higher than in the CQ-alone treatment group (FIG. 2A-D). Meanwhile, Cory B induces GFP-LC3 puncta formation is abolished by treatment of 5 mM autophagy inhibitor 3-MA for 24 hours (FIG. 2C, D). Cells were fixed in 4% paraformaldehyde and analyzed under a confocal microscope. Data are presented as the mean±SEM of one representative experiment from three independent experiments. (***p<0.001, one-way ANOVA for multiple comparison and Tukey's test as post hoc test). […] Thus, Cory B is indeed an autophagy inducer in neuronal cells.
To compare the activities of oxindole alkaloids on autophagy induction, LC3II expression levels in N2a cells after treatment with Corynoxine B (Cory B) (FIG. 8A), Corynoxine (Cory) (FIG. 8B), Rhynchophylline (Rhy) (FIG. 8C) and Isorhynchophylline (IsoRhy) for 12 hours are examined.
In order to examine the pro-autophagic activities of the synthesized Cory B analogues, neuroblastoma 2a, a neuronal cell line, are treated with various concentrations of the analogues for 12 hrs. The cells are then harvested and lysed with RIPA buffer (150 mM NaCl, 50 mM Tris-HCl pH 7.4, 0.35% sodium deoxycholate, 1 mM EDTA, 1% NP40, 1 mM PMSF, 5 μg/ml aprotinin, 5 μg/ml leupeptin). The sample are lysed on ice with occasional vortex for 30 min, and then centrifuged at 14,000 rpm for 15 min at 4° C. The supernatant are collected and denatured at 95° C. in sample buffer for 5 min. The denatured samples are then separated on 15% SDS-PAGE gels and transferred to PVDF membrane. Membranes are then blocked with 5% non-fat milk and probed with appropriate primary and secondary antibodies. The protein signals of LC3II, marker protein of autophagy, are finally visualized with ECL kit and the protein bands density are quantified by ImageJ program. […]

N2a Swedish APP cells = test: APP reduction in N2a Swedish APP cells (western blot); assay type: cell-based, mouse; details: different concentrations, with or without CQ and 3MA
Method: N2a Swedish APP cells are incubated with different concentration of Cory and Cory B in the presence or absence of CQ and 3MA. […] Tg2567 APP mice, 3 months old JNPL P301 Tau mice and WT mice intraperitoneally are administrated with 20 mg/kg/d CoryB.

| Structure (SMILES) | autophagy induction (LC3II expression level) (N2a cells) | full length and CTF APP (N2a Swedish APP cells) |
| --- | --- | --- |
| CC[C@@H]1CN2CC[C@@]3(C(=O)Nc4ccccc43)C2C[C@@H]1C(=COC)C(=O)OC (stereo partly shown) [Cory, corynoxine] | significantly activate autophagy | dose-dependently reduce both full length and CTF APP |
| CC[C@H]1CN2CC[C@@]3(C(=O)Nc4ccccc43)[C@@H]2C[C@@H]1/C(=C\OC)C(=O)OC [IsoRhy, Isorhynchophylline, reference compound] | did not show any activity on autophagy induction |  |
| CC[C@H]1CN2CC[C@]3(C(=O)Nc4ccccc43)[C@@H]2C[C@@H]1/C(=C\OC)C(=O)OC [Rhy, Rhynchophylline, reference compound] | did not show any activity on autophagy induction |  |
